The nature of data set [1]: Everolimus pharmacokinetics in whole blood (HPLC-MS/MS), single-agent and combined with metformin. The note with it: for k el: read-out: λz (converted); for half-life: all 7 patients, mean (SD). The format is in vivo, human. On the procedure:
(§1) The pharmacokinetic parameters were calculated using PKSolver. All P values were calculated using the R statistical programming language (paired Student’s t-test).

For data set [2] the following is noted: everolimus; cited from earlier work.
The next data set is described as follows: clinical. On the procedure:
as §1

Another data set concerns endometrial cancer. The note with it: cited from earlier work.

The half-life is how long it takes for the measured level to halve.

Consider `CO[C@H]1C[C@@H]2CC[C@@H](C)[C@@](O)(O2)C(=O)C(=O)N2CCCC[C@H]2C(=O)O[C@H]([C@H](C)C[C@@H]2CC[C@@H](OCCO)[C@H](OC)C2)CC(=O)[C@H](C)/C=C(\C)[C@@H](O)[C@@H](OC)C(=O)[C@H](C)C[C@H](C)/C=C/C=C/C=C/1C` [everolimus], for which the Cmax in data set [1] (everolimus 5 mg qd, in combination with metformin 500 mg bid, n = 2) is 39.45 ng/mL; in data set [1] (everolimus 5 mg qd, single-agent, n = 2), 34.80 ng/mL; in data set [1] (human, whole blood, oral, everolimus 10 mg qd, single-agent (day 7), n = 5, mean (SD), read-out: Cmax), 73.1 ng/mL. Also, the AUC in data set [1] (everolimus 10 mg qd, single-agent, AUC t = 0 to 24 h, n = 5, mean (SD)) is 0.713 (0.35) mg/l*h; in data set [1] (human, whole blood, oral, 5 mg, everolimus 5 mg qd, single-agent, n = 2, read-out: AUC), 282 ng·h/mL; in data set [1] (human, whole blood, oral, everolimus 5 mg qd, in combination with metformin, n = 2, read-out: AUC), 254 ng·h/mL; in data set [1] (human, whole blood, oral, everolimus 10 mg qd, in combination with metformin, AUC t = 0 to 24 h, n = 5, mean (SD), read-out: AUC), 639 ng·h/mL. The k el in data set [1] (human, whole blood, oral, 5 mg, everolimus 5 mg qd, single-agent, n = 2) is 1.22e-05 s⁻¹; in data set [1] (human, whole blood, oral, 10 mg, everolimus 10 mg qd, single-agent, n = 5, mean (SD)) it was 7.78e-06 s⁻¹; in data set [1] (human, whole blood, oral, everolimus 5 mg qd, in combination with metformin, n = 2) it was 9.72e-06 s⁻¹; in data set [1] (human, whole blood, oral, everolimus 10 mg qd, in combination with metformin, n = 5, mean (SD)) it was 8.06e-06 s⁻¹. Further, the clearance in data set [1] (human, whole blood, oral, everolimus as single agent) was 162 mL/min; in data set [1] (human, whole blood, oral, everolimus in combination with metformin), 300 mL/min. The half-life is 23.2 h in data set [1] (human, whole blood, oral, everolimus in combination with metformin (day 15)) and 23.1 h in data set [1] (human, whole blood, oral, everolimus single-agent (day 7)). The “elimination half-life (t1/2)” value in data set [2] was 30 h.
In “clinical” (human, in vivo, 500 mg), `CN(C)C(=N)N=C(N)N` [metformin] had an AUC of 8320 ng·h/mL and a k el of 4.72e-05 s⁻¹. Also, the Cmax in “clinical” (metformin 500 mg bid, in combination with everolimus (day 15), n = 5, mean (SD)) is recorded as 1027 (261) μg/l. For the same compound, the “rate of disease progression” value in the data set with endometrial cancer (self-reported metformin use with an mTOR inhibitor, vs. 33% without) was 12%. For the same compound, the “response rate to an mTOR inhibitor” value in the data set on endometrial cancer (self-reported metformin use, 94 patients, three trials of various mTOR inhibitors, vs. 7% without) is listed as 18%.

(Values after paper PMC5805805 (Investigational New Drugs, 2017).)
